“Also recorded” adds a separate entry of the source.
Columns and labels:
KATP channels = test: Whole cell patch clamp of KATP currents in MIN6 beta cells; type: cell-based; details: illumination 470 ± 20 nm, JB253 concentration printed as 10 mM
Description: MIN6 cells (obtained from Dr Jun-ichi Miyazaki, Osaka University, see Miyazaki et al., 1990)) were cultured in DMEM supplemented with 15% FBS, 1% glutamine, 2% HEPES buffer, 0.0005% β-mercaptoethanol and 1% penicillin/streptomycin. Cells were seeded onto glass coverslips 24 hrs before whole cell patch clamp experiments using micropipettes generated from thin-walled borosilicate capillaries (3-6 MΩ). Bath solution contained in mM: 3 KCl, 118 NaCl, 25 HEPES, 3 MgCl2 and 2 CaCl2. Pipette solution contained in mM: 150 KCl, 3 MgCl2, 5 EGTA, 10 HEPES, 0.3 K2ATP (pH 7.2), and the holding potential was -60 mV. Illumination was provided using a X-Cite 120 mercury arc lamp (Lumen Dynamics) with a bandpass filter (470 ± 20 nm). Voltage ramps from -20 mV to -120 mV (500 ms duration) were applied every 5 s to produce current-voltage relationships in the presence and absence of JB253. All cells lines were regularly mycoplasma tested.

[1] = Water solubility on dilution from DMSO stock; type: physicochemical; details: kinetic from dmso stock, diluted from a 50 mM stock solution in DMSO
isolated murine islets = test: Insulin secretion from isolated islets (static incubation, radioimmunoassay); type: cell-based, mouse
Description: Insulin secretion was measured from 6 islets per well, incubated at 37 °C for 30 min in 0.5 ml of Krebs-HEPES-bicarbonate (KHB) solution (containing in mM: 130 NaCl, 3.6 KCl, 1.5 CaCl2, 0.5 MgSO4, 0.5 NaH2PO4, 2 NaHCO3, 10 HEPES, and 0.1 % (wt/vol) BSA, pH 7.4) containing the indicated glucose concentration and tolbutamide (100 µM), glimeperide (50 µM), diazoxide (250 µM) and JB253 (50 µM). Illumination (λ = 405 ± 20 nm and 485 ± 6 nm) was performed using a Fluostar Optima microplate reader (BMG Labtech) set to deliver 30 s of light every 2 min to the designated wells. Insulin concentrations were determined in duplicate using specific radioimmunoassay (EMD Millipore).

Epac2A = test: Epac2-camps FRET imaging in HEK293t cells; type: cell-based; details: HEK293t cells expressing full length Epac2-camps; JB253 as cis-JB253 (excitation 440 nm)
Description: For EPAC2 imaging, HEK293t were transfected with the full length construct for […] containing the cAMP and sulfonylurea binding domains (obtained from Prof. […] Excitation was delivered at 440 nm and emitted signals captured using […] filters. FRET was calculated as the ratio of Cerulean (CFP):Venus (YFP) fluorescence. Signals were normalized using R/R0 where R is the ratio at a given timepoint and R0 is the minimum ratio.

human islets = test: Calcium imaging in isolated human islets of Langerhans; type: cell-based; details: human islets from three donors, 440 nm
Description: Human islets were isolated from deceased heart-beating donors (n = 3) at transplantation facilities in Pisa and Edmonton with the relevant national and local ethical permissions, including consent from next of kin where required, and cultured in RPMI supplemented with 5.5 mM D-glucose, 10% foetal calf serum (FCS), 100 U penicillin, 100 µg streptomycin and 0.25/µl fungizone (37 °C, 5% CO2). All studies involving human tissue were approved by the National Research Ethics Committee (NRES) London (Fulham), REC # 07/H0711/114.
Islets were loaded for 30-45 min in fluo2-AM (10 µM) or for 2-5 min with X-Rhod 1 (5 µM) diluted with a mixture of DMSO (0.01%, wt/vol) and pluronic acid (0.001%, wt/vol; all Invitrogen) in a bicarbonate buffer containing in mM: 120 NaCl, 4.8 KCl, 1.25 NaH2PO4, 24 NaHCO3, 2.5 CaCl2, 1.2 MgCl2 and 5 D-glucose. fMCI was performed using a Zeiss Axiovert M200 fitted with a Nipkow spinning-disk head (Yokogawa CSU-10) and a 10x/0.3NA objective adjusted for chromatic aberration (EC Plan-Neofluar, Zeiss). Pulsed excitation (frequency = 0.5 Hz; exposure = 263 ms) was delivered at 491 nm and emitted signals recorded at 500-550 nm with a back-illuminated 16-bit EM-CCD camera (ImageEM 9100-13; Hamamatsu). During recording, islets were maintained at 35-36 °C in the presence of 50 µM JB253 using a custom-manufactured perfusion and heating system (Digital Pixel). Drugs were introduced through the perfusion system at the indicated time points and concentrations. Violet light was delivered by a 405 ± 5 nm laser coupled to the side port of the microscope and configured to fill the back of the objective with light using an Optospot (Cairn Research). Blue light was delivered using 440 ± 5 nm and 491 ± 5 nm diode lasers controlled by a laser merge module (Spectral Applied Research) to allow simultaneous exposure and acquisition. […] Signals were normalized using F/Fmin where F is fluorescence at a given timepoint and Fmin is minimum fluorescence.

Compound: CCN(CC)c1ccc(/N=N/c2ccc(S(=O)(=O)NC(=O)NC3CCCCC3)cc2)cc1 [JB253, (E)-N-(cyclohexylcarbamoyl)-4-((4-(diethylamino)phenyl)diazenyl)benzenesulfonamide]
- block of KATP (hyperpolarizing) currents (KATP channels): reversibly blocked; also recorded: only blocks the KATP current during illumination
- solubility [1]: ≥ 100 µM
- insulin secreted following illumination (isolated murine islets; 50 µM JB253, 5 mM glucose, 405 nm or 485 nm, 30 min): 4-8 fold
- insulin release in the dark versus control (5 mM glucose) (isolated murine islets; 50 µM JB253, dark, 30 min): similar
- stimulation of insulin secretion compared with glimepiride (isolated murine islets; 485 nm light, JB253 50 µM, glimepiride 50 µM): equipotent to glimepiride
- ΔR/R0 (decrease in FRET) (Epac2A): 0.064 AU
- X-Rhod1-loaded cells responding with Ca^2+ rises (human islets): ~62%

— EP3009422A1, “Photo-switchable sulfonylureas and their uses” (Ludwig-Maximilians-Universität München, priority 2014, dated 2016)
